Source: PubChem BioAssay AID248 (DTP/NCI, 2004)
Where “and” joins values, the source holds several entries; their conditions need not be identical. Identical values can stand only once. Toxic doses and inconclusive results are not listed. Cut-off read from the data, not from the text of the source: active = T/C of 150% or more; inactive = T/C below 125%.

Test system: L1210 leukemia ip in BDF1 mice, survival T/C
Test: NCI In Vivo Anticancer Drug Screen. Data for tumor model L1210 Leukemia (intraperitoneal) in B6D2F1 (BDF1) mice
Conditions: higher = longer survival
Method in brief: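 Tumor was transplanted into mice, which were then dosed with test compound or vehicle alone. Survival was recorded for each group, and the treated figure was expressed relative to the control figure.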

Measured: T/C

CC[n+]1c(-c2ccccc2)c2cc(N)ccc2c2ccc(N)cc21
inactive: endpoint: mean survival time, dose: 0.63 mg/kg/injection, schedule: Q01DX Z (ip), vehicle: saline 113 % of control | endpoint: mean survival time, dose: 1.25 mg/kg/injection, schedule: Q01DX Z (ip), vehicle: saline 122 % of control | endpoint: mean survival time, dose: 2.25 mg/kg/injection, schedule: Q01DX001 (ip), vehicle: saline 110 % of control and 113 % of control | endpoint: mean survival time, dose: 2.25 mg/kg/injection, schedule: Q07DX003 (ip), vehicle: saline 113 % of control | endpoint: mean survival time, dose: 2.5 mg/kg/injection, schedule: Q01DX005 (ip), vehicle: saline 109 % of control | endpoint: mean survival time, dose: 2.5 mg/kg/injection, schedule: Q01DX009 (ip), vehicle: saline 107 % of control | endpoint: mean survival time, dose: 2.5 mg/kg/injection, schedule: Q## X040 (ip), vehicle: saline 107 % of control | endpoint: mean survival time, dose: 2.5 mg/kg/injection, schedule: Q#A X Z (ip), vehicle: saline 108 % of control | endpoint: mean survival time, dose: 4.4 mg/kg/injection, schedule: Q02DX010 (ip), vehicle: saline 110 % of control | endpoint: mean survival time, dose: 4.5 mg/kg/injection, schedule: Q01DX001 (ip), vehicle: saline 104 % of control and 113 % of control | endpoint: mean survival time, dose: 4.5 mg/kg/injection, schedule: Q07DX003 (ip), vehicle: saline 109 % of control | endpoint: mean survival time, dose: 5.0 mg/kg/injection, schedule: Q01DX005 (ip), vehicle: saline 116 % of control | endpoint: mean survival time, dose: 5.0 mg/kg/injection, schedule: Q01DX006 (iv), vehicle: saline 104 % of control | endpoint: mean survival time, dose: 5.0 mg/kg/injection, schedule: Q01DX009 (ip), vehicle: saline 108 % of control | endpoint: mean survival time, dose: 5.0 mg/kg/injection, schedule: Q01DX Z (im), vehicle: saline 106 % of control | endpoint: mean survival time, dose: 5.0 mg/kg/injection, schedule: Q01DX Z (sc), vehicle: saline 110 % of control | endpoint: mean survival time, dose: 5.0 mg/kg/injection, schedule: Q## X040 (ip), vehicle: saline 111 % of control | endpoint: mean survival time, dose: 5.3 mg/kg/injection, schedule: Q02DX010 (ip), vehicle: saline 116 % of control | endpoint: mean survival time, dose: 6.6 mg/kg/injection, schedule: Q02DX010 (ip), vehicle: saline 116 % of control | endpoint: mean survival time, dose: 9.0 mg/kg/injection, schedule: Q01DX001 (ip), vehicle: saline 113 % of control and 116 % of control | endpoint: mean survival time, dose: 9.0 mg/kg/injection, schedule: Q07DX003 (ip), vehicle: saline 110 % of control | endpoint: mean survival time, dose: 9.9 mg/kg/injection, schedule: Q02DX010 (ip), vehicle: saline 115 % of control | endpoint: mean survival time, dose: 10.0 mg/kg/injection, schedule: Q01DX005 (ip), vehicle: saline 120 % of control | endpoint: mean survival time, dose: 10.0 mg/kg/injection, schedule: Q01DX006 (iv), vehicle: saline 123 % of control | endpoint: mean survival time, dose: 10.0 mg/kg/injection, schedule: Q01DX009 (ip), vehicle: saline 116 % of control | endpoint: mean survival time, dose: 10.0 mg/kg/injection, schedule: Q01DX Z (im), vehicle: saline 119 % of control | endpoint: mean survival time, dose: 10.0 mg/kg/injection, schedule: Q01DX Z (sc), vehicle: saline 116 % of control | endpoint: mean survival time, dose: 10.0 mg/kg/injection, schedule: Q## X040 (ip), vehicle: saline 112 % of control | endpoint: mean survival time, dose: 10.0 mg/kg/injection, schedule: Q#A X Z (ip), vehicle: saline 112 % of control | endpoint: mean survival time, dose: 12.5 mg/kg/injection, schedule: Q04DX003 (ip), vehicle: water 104 % of control | endpoint: mean survival time, dose: 14.85 mg/kg/injection, schedule: Q02DX010 (ip), vehicle: saline 113 % of control | endpoint: mean survival time, dose: 15.0 mg/kg/injection, schedule: Q03DX006 (ip), vehicle: saline 118 % of control | endpoint: mean survival time, dose: 18.0 mg/kg/injection, schedule: Q01DX001 (ip), vehicle: saline 116 % of control and 121 % of control | endpoint: mean survival time, dose: 18.0 mg/kg/injection, schedule: Q07DX003 (ip), vehicle: saline 122 % of control | endpoint: mean survival time, dose: 20.0 mg/kg/injection, schedule: Q01DX001 (ip), vehicle: saline 109 % of control | endpoint: mean survival time, dose: 20.0 mg/kg/injection, schedule: Q01DX001 (sc), vehicle: saline 103 % of control | endpoint: mean survival time, dose: 20.0 mg/kg/injection, schedule: Q01DX003 (ip), vehicle: saline 118 % of control | endpoint: mean survival time, dose: 20.0 mg/kg/injection, schedule: Q01DX005 (ip), vehicle: saline 110 % of control | endpoint: mean survival time, dose: 20.0 mg/kg/injection, schedule: Q01DX009 (ip), vehicle: saline 117 % of control | endpoint: mean survival time, dose: 20.0 mg/kg/injection, schedule: Q01DX Z (im), vehicle: saline 116 % of control | endpoint: mean survival time, dose: 20.0 mg/kg/injection, schedule: Q01DX Z (ip), vehicle: saline 95 % of control | endpoint: mean survival time, dose: 20.0 mg/kg/injection, schedule: Q01DX Z (oral), vehicle: saline 110 % of control | endpoint: mean survival time, dose: 20.0 mg/kg/injection, schedule: Q01DX Z (sc), vehicle: saline 122 % of control | endpoint: mean survival time, dose: 20.0 mg/kg/injection, schedule: Q## X008 (ip), vehicle: saline 94 % of control | endpoint: mean survival time, dose: 20.0 mg/kg/injection, schedule: Q## X024 (ip), vehicle: saline 107 % of control | endpoint: mean survival time, dose: 22.27 mg/kg/injection, schedule: Q02DX010 (ip), vehicle: saline 117 % of control | endpoint: mean survival time, dose: 25.0 mg/kg/injection, schedule: Q04DX003 (ip), vehicle: water 104 % of control | endpoint: mean survival time, dose: 40.0 mg/kg/injection, schedule: Q01DX001 (ip), vehicle: saline 118 % of control | endpoint: mean survival time, dose: 40.0 mg/kg/injection, schedule: Q01DX001 (sc), vehicle: saline 102 % of control | endpoint: mean survival time, dose: 40.0 mg/kg/injection, schedule: Q01DX003 (ip), vehicle: saline 110 % of control | endpoint: mean survival time, dose: 40.0 mg/kg/injection, schedule: Q01DX005 (ip), vehicle: saline 96 % of control | endpoint: mean survival time, dose: 40.0 mg/kg/injection, schedule: Q01DX009 (ip), vehicle: saline 90 % of control | endpoint: mean survival time, dose: 40.0 mg/kg/injection, schedule: Q01DX Z (oral), vehicle: saline 113 % of control | endpoint: mean survival time, dose: 40.0 mg/kg/injection, schedule: Q## X008 (ip), vehicle: saline 95 % of control | endpoint: mean survival time, dose: 40.0 mg/kg/injection, schedule: Q## X024 (ip), vehicle: saline 111 % of control | endpoint: mean survival time, dose: 40.0 mg/kg/injection, schedule: Q## X040 (ip), vehicle: saline 93 % of control | endpoint: mean survival time, dose: 60.0 mg/kg/injection, schedule: Q03DX006 (ip), vehicle: saline 93 % of control | endpoint: mean survival time, dose: 70.0 mg/kg/injection, schedule: Q01DX001 (ip), vehicle: saline 118 % of control and 119 % of control | endpoint: mean survival time, dose: 70.0 mg/kg/injection, schedule: Q07DX003 (ip), vehicle: saline 124 % of control | endpoint: mean survival time, dose: 80.0 mg/kg/injection, schedule: Q01DX001 (ip), vehicle: saline 103 % of control | endpoint: mean survival time, dose: 80.0 mg/kg/injection, schedule: Q01DX001 (sc), vehicle: saline 108 % of control | endpoint: mean survival time, dose: 80.0 mg/kg/injection, schedule: Q01DX003 (ip), vehicle: saline 98 % of control | endpoint: mean survival time, dose: 80.0 mg/kg/injection, schedule: Q01DX Z (oral), vehicle: saline 108 % of control | endpoint: mean survival time, dose: 80.0 mg/kg/injection, schedule: Q## X008 (ip), vehicle: saline 103 % of control | endpoint: mean survival time, dose: 140.0 mg/kg/injection, schedule: Q01DX001 (ip), vehicle: saline 104 % of control and 124 % of control | endpoint: mean survival time, dose: 160.0 mg/kg/injection, schedule: Q01DX001 (ip), vehicle: saline 94 % of control | endpoint: mean survival time, dose: 160.0 mg/kg/injection, schedule: Q01DX Z (oral), vehicle: saline 113 % of control | endpoint: mean survival time, dose: 160.0 mg/kg/injection, schedule: Q## X024 (ip), vehicle: saline 94 % of control | endpoint: mean survival time, dose: 200.0 mg/kg/injection, schedule: Q01DX001 (oral), vehicle: saline 103 % of control | endpoint: mean survival time, dose: 215.0 mg/kg/injection, schedule: Q04DX003 (ip), vehicle: water 109 % of control | endpoint: mean survival time, dose: 400.0 mg/kg/injection, schedule: Q01DX001 (oral), vehicle: saline 103 % of control | endpoint: mean survival time, dose: 430.0 mg/kg/injection, schedule: Q04DX003 (ip), vehicle: water 93 % of control | endpoint: mean survival time, dose: 800.0 mg/kg/injection, schedule: Q01DX001 (oral), vehicle: saline 101 % of control | endpoint: mean survival time, dose: 1600.0 mg/kg/injection, schedule: Q01DX001 (oral), vehicle: saline 102 % of control | endpoint: median survival time, dose: 3.6 mg/kg/injection, schedule: Q01DX005 (ip), vehicle: water 105 % of control | endpoint: median survival time, dose: 5.0 mg/kg/injection, schedule: Q01DX009 (ip), vehicle: water 109 % of control and 110 % of control | endpoint: median survival time, dose: 6.0 mg/kg/injection, schedule: Q01DX005 (ip), vehicle: water 100 % of control | endpoint: median survival time, dose: 10.0 mg/kg/injection, schedule: Q01DX005 (ip), vehicle: water 111 % of control | endpoint: median survival time, dose: 10.0 mg/kg/injection, schedule: Q01DX009 (ip), vehicle: water 116 % of control and 120 % of control | endpoint: median survival time, dose: 17.0 mg/kg/injection, schedule: Q01DX005 (ip), vehicle: water 111 % of control | endpoint: median survival time, dose: 17.0 mg/kg/injection, schedule: Q04DX003 (ip), vehicle: water 100 % of control | endpoint: median survival time, dose: 20.0 mg/kg/injection, schedule: Q01DX009 (ip), vehicle: water 90 % of control | endpoint: median survival time, dose: 29.0 mg/kg/injection, schedule: Q01DX005 (ip), vehicle: water 116 % of control | endpoint: median survival time, dose: 29.0 mg/kg/injection, schedule: Q04DX003 (ip), vehicle: water 100 % of control | endpoint: median survival time, dose: 40.0 mg/kg/injection, schedule: Q01DX009 (ip), vehicle: water 70 % of control | endpoint: median survival time, dose: 48.0 mg/kg/injection, schedule: Q04DX003 (ip), vehicle: water 100 % of control | endpoint: median survival time, dose: 49.0 mg/kg/injection, schedule: Q01DX005 (ip), vehicle: water 116 % of control | endpoint: median survival time, dose: 80.0 mg/kg/injection, schedule: Q04DX003 (ip), vehicle: water 105 % of control | endpoint: median survival time, dose: 134.0 mg/kg/injection, schedule: Q04DX003 (ip), vehicle: water 111 % of control
